Measurements taken from patent publication US10975098B2, “Substituted aminothiazolopyrimidinediones for the treatment of virus infection” (Hoffmann-La Roche Inc., priority 2015, dated 2021).

Tests used:
human TLR7 = molecular target: T1, human TLR7 (Homo sapiens, UniProt Q9NYK1); experiment: HEK293-Blue-hTLR-7 cells assay (SEAP reporter); type: cell-based; conditions: TLR7 agonism, 20 hours incubation, 1% DMSO
T1 sequence (Q9NYK1 27-1049): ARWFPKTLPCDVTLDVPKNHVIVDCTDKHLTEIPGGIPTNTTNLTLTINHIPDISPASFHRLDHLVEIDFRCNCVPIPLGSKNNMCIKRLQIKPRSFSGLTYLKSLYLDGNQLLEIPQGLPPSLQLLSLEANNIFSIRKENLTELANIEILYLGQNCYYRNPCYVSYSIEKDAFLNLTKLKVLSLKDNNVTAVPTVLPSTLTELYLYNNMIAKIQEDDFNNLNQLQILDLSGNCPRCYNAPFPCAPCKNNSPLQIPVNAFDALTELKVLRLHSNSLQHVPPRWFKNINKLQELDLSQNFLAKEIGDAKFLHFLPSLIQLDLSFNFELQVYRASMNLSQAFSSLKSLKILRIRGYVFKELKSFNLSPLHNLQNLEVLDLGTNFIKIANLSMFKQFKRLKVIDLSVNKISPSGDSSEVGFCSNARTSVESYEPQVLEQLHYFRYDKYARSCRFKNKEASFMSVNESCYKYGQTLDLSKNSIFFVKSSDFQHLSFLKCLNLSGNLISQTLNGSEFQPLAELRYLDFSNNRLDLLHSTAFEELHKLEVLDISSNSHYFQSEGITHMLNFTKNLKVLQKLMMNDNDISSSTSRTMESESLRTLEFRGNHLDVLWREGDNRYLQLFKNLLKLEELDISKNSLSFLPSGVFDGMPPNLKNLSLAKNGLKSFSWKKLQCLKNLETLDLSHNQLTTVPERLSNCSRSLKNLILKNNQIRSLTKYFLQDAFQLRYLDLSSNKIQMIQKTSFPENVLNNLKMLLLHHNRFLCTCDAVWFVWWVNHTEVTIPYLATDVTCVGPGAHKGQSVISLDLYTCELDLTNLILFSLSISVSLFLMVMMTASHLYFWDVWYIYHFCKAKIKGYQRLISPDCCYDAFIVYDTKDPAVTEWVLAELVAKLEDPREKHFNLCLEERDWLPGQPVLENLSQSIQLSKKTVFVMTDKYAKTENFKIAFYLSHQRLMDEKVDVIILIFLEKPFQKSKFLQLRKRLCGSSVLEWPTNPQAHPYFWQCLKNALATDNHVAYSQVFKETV
Description: HEK293-Blue-hTLR-7 Cells Assay
(§1) A stable HEK293-Blue-hTLR-7 cell line was purchased from InvivoGen (Cat. #: hkb-htlr7, San Diego, Calif., USA). These cells were designed for studying the stimulation of human TLR7 by monitoring the activation of NF-κB. A SEAP (secreted embryonic alkaline phosphatase) reporter gene was placed under the control of the IFN-β minimal promoter fused to five NF-κB and AP-1-binding sites. The SEAP was induced by activating NF-κB and AP-1 via stimulating HEK-Blue hTLR7 cells with TLR7 ligands. Therefore the reporter expression was regulated by the NF-κB promoter upon stimulation of human TLR7. The cell culture supernatant SEAP reporter activity was determined using QUANTI-Blue™ kit (Cat. #: rep-qb 1, Invivogen, San Diego, Calif., USA) at a wavelength of 640 nm, a detection medium that turns purple to blue in the presence of alkaline phosphatase.
(§2) HEK293-Blue-hTLR7 cells were incubated at a density of 250,000˜450,000 cells/mL in a volume of 180 μL in a 96-well plate in Dulbecco's Modified Eagle's medium (DMEM) containing 4.5 g/L glucose, 50 U/mL penicillin, […], […], 2 mM L-glutamine, 10% (v/v) heat-inactivated fetal bovine serum for 24 hours. Then the HEK293-Blue-hTLR-7 cells were incubated with addition of 20 μL test compound in a serial dilution in the presence of final DMSO at 1% and perform incubation under 37° C. in a CO2 incubator for 20 hours. Then 20 μL of the supernatant from each well was incubated with 180 μL Quanti-blue substrate solution at 37° C. for 1-3 hours and the absorbance was read at 620-655 nm using a spectrophotometer. The signalling pathway that TLR7 activation leads to downstream NF-κB activation has been widely accepted, and therefore similar reporter assay was also widely used for evaluating TLR7 agonist (Tsuneyasu Kaisho and Takashi Tanaka, Trends in Immunology, Volume 29, Issue 7, July 2008, Pages 329. sci; Hiroaki Hemmi et al, Nature Immunology 3, 2002, 196-200).
(§3) The compounds of the present invention were tested in the above assay for their TLR7 and TLR8 agonism activities as described herein and results are listed in Table 1.

human TLR8 = molecular target: T2, human TLR8 (Homo sapiens, UniProt Q9NR97); experiment: HEK293-Blue-hTLR-8 cells assay (SEAP reporter); type: cell-based; conditions: TLR8 agonism, 20 hours incubation, 1% DMSO
T2 sequence (Q9NR97 27-1041): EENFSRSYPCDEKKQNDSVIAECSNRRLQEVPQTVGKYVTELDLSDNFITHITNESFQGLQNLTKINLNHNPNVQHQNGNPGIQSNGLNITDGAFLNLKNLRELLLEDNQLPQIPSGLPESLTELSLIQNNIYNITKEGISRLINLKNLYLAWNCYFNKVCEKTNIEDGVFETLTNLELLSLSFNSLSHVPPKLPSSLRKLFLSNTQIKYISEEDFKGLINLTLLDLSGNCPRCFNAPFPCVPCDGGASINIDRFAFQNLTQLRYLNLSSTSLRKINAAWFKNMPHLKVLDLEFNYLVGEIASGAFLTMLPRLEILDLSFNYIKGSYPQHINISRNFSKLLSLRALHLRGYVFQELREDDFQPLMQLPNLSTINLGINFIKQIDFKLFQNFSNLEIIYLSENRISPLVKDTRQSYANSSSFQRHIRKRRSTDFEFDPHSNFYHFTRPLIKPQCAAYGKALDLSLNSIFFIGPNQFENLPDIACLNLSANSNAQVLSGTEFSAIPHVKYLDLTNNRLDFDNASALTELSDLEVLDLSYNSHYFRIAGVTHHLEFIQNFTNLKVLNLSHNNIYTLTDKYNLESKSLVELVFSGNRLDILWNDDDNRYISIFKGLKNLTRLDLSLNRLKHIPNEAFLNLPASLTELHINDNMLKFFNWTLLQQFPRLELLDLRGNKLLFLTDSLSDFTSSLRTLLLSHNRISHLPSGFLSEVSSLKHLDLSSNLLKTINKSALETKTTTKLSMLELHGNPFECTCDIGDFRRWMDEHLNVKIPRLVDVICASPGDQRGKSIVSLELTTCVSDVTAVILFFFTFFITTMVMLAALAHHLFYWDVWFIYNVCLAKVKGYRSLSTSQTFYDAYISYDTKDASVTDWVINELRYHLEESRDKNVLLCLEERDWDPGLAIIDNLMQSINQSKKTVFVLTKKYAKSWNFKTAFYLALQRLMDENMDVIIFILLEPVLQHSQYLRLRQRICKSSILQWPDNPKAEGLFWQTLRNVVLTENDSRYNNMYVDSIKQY
Description: HEK293-Blue-hTLR-8 cells assay:
as §1, with “HEK293-Blue-hTLR-8” for “HEK293-Blue-hTLR-7”, “hkb-htlr8,” for “hkb-htlr7,”, “TLR8” for “TLR7”, “hTLR8” for “hTLR7”, “TLR8.” for “TLR7.”
as §2, with “HEK293-Blue-hTLR8” for “HEK293-Blue-hTLR7”, “250,000-450,000” for “250,000˜450,000”, “HEK293-Blue-hTLR-8” for “HEK293-Blue-hTLR-7”, “TLR8” for “TLR7”, “TLR8 agonist.” for “TLR7 agonist (Tsuneyasu Kaisho and Takashi Tanaka, Trends in Immunology, Volume 29, Issue 7, July 2008, Pages 329. sci; Hiroaki Hemmi et al, Nature Immunology 3, 2002, 196-200).”
as §3

Row | Structure (SMILES) | EC50 (human TLR7) [µM] | EC50 (human TLR8) [µM]
1 | CC[C@H](O)[C@@H]1C[C@@H]([C@@H](C)NC)[C@H](n2c(=O)sc3c(=O)[nH]c(N)nc32)O1 [Example 2, 5-Amino-3-[(2R,3S,5S)-5-[(1S)-1-hydroxypropyl]-3-[(1R)-1-(methylamino)ethyl]tetrahydrofuran-2-yl]-6H-thiazolo[4,5-d]pyrimidine-2,7-dione] | 81 | 27
2 | CC[C@H](O)[C@@H]1C[C@@H]([C@@H](C)N(C)C)[C@H](n2c(=O)sc3c(=O)[nH]c(N)nc32)O1 [Example 8, 5-Amino-3-[(2R,3S,5S)-3-[(1R)-1-(dimethylamino)ethyl]-5-[(1S)-1-hydroxypropyl]tetrahydrofuran-2-yl]-6H-thiazolo[4,5-d]pyrimidine-2,7-dione] | 82 | 185
3 | CC[C@H](O)[C@@H]1C[C@@H]([C@H](C)NC)[C@H](n2c(=O)sc3c(=O)[nH]c(N)nc32)O1 [Example 6, 5-Amino-3-[(2R,3S,5S)-5-[(1S)-1-hydroxypropyl]-3-[(1S)-1-(methylamino)ethyl]tetrahydrofuran-2-yl]-6H-thiazolo[4,5-d]pyrimidine-2,7-dione] | 250 | 4
4 | CC[C@H](O)[C@@H]1C[C@@H]([C@@H](C)N)[C@H](n2c(=O)sc3c(=O)[nH]c(N)nc32)O1 [Example 1-B, 5-amino-3-[(2R,3S,5S)-3-[(1R)-1-aminoethyl]-5-[(1S)-1-hydroxypropyl]tetrahydrofuran-2-yl]-6H-thiazolo[4,5-d]pyrimidine-2,7-dione] | 101 | 55
5 | CC[C@H](O)[C@@H]1C[C@@H]([C@H](C)NCc2ccccc2)[C@H](n2c(=O)sc3c(=O)[nH]c(N)nc32)O1 [Example 7, 5-Amino-3-[(2R,3S,5S)-3-[(1S)-1-(benzylamino)ethyl]-5-[(1S)-1-hydroxypropyl]tetrahydrofuran-2-yl]-6H-thiazolo[4,5-d]pyrimidine-2,7-dione] | 3.4 | 2.2
6 | CC[C@H](O)[C@@H]1C[C@@H]([C@H](C)N)[C@H](n2c(=O)sc3c(=O)[nH]c(N)nc32)O1 [Example 1-A, 5-Amino-3-[(2R,3S,5S)-3-[(1S)-1-aminoethyl]-5-[(1S)-1-hydroxypropyl]tetrahydrofuran-2-yl]-6H-thiazolo[4,5-d]pyrimidine-2,7-dione] | 75 | 1.3
7 | CC[C@H](O)[C@@H]1C[C@@H]([C@@H](C)NCc2ccccc2)[C@H](n2c(=O)sc3c(=O)[nH]c(N)nc32)O1 [Example 5, 5-Amino-3-[(2R,3S,5S)-3-[(1R)-1-(benzylamino)ethyl]-5-[(1S)-1-hydroxypropyl]tetrahydrofuran-2-yl]-6H-thiazolo[4,5-d]pyrimidine-2,7-dione] | 3.7 | 85
8 | CCCN[C@H](C)[C@@H]1C[C@@H]([C@@H](O)CC)O[C@H]1n1c(=O)sc2c(=O)[nH]c(N)nc21 [Example 3, 5-Amino-3-[(2R,3S,5S)-5-[(1S)-1-hydroxypropyl]-3-[(1R)-1-(propylamino)ethyl]tetrahydrofuran-2-yl]-6H-thiazolo[4,5-d]pyrimidine-2,7-dione] | 7.7 | 125
9 | CC[C@H](O)[C@@H]1C[C@@H]([C@@H](C)NC2CC2)[C@H](n2c(=O)sc3c(=O)[nH]c(N)nc32)O1 [Example 4, 5-Amino-3-[(2R,3S,5S)-3-[(1R)-1-(cyclopropylamino)ethyl]-5-[(1S)-1-hydroxypropyl]tetrahydrofuran-2-yl]-6H-thiazolo[4,5-d]pyrimidine-2,7-dione] | 3.5 | 94
